Here are results for four compounds from patent publication US8029774B2, “Wound healing polymeric networks” (University of Pittsburgh, priority 2005, dated 2011).

For data set [1], the system named is human keratinocytes (HaCaT cells). The data set can be described thus: Cell motility, in vitro wound healing assay. To be noted: compared to no gel.
The next data set deals with human dermal fibroblasts. The data set can be described thus: Cell motility, in vitro wound healing assay. To be noted: for movement of fibroblasts: in vitro wound healing assay, compared to no gel.

Consider `COC(=O)C(CCCCN=C=O)N=C=O` (centres unmarked) [LDI, Lysine diisocyanate methyl ester], for which, in data set [1], the movement of keratinocytes entry is “limited cell movement”. Further, the movement of fibroblasts result in the data set on human dermal fibroblasts was “limited cell movement”.

For `OC[C@H]1O[C@@H](O[C@H]2[C@H](O)[C@@H](O)C(O)O[C@@H]2CO)[C@H](O)[C@@H](O)[C@H]1O` (some centres unmarked) [lactose], the movement of keratinocytes result in data set [1] is given as “limited cell movement”. Moreover, the movement of fibroblasts result in the data set on human dermal fibroblasts is listed as “limited cell movement”.

In turn, `O=[N+]([O-])[O-].[Ag+]` [silver nitrate] yielded a dead cells with human fibroblasts (human fibroblasts, 3 μg/ml of silver nitrate in medium, or polymer cured with 3 μg/ml silver) of 10%.

Turning to `[Ag]` [silver], in the data set with human fibroblasts, the “concentrations of silver preferred for cell proliferation” value is reported as “lower than 15 μg/ml” and the fibroblasts proliferation result is “greatly inhibited”. Moreover, the “impact on cell migration or proliferation” value in the data set with human dermal fibroblasts (silver per se) was “no adverse impact”.
